Source: US20220062240A1, “METHODS OF TREATING CANCER USING A CLK INHIBITOR” (BioSplice Therapeutics, Inc., priority 2018, published 2022)
Like-named read-outs stand apart in the source and are kept apart here.

Assays:
Format in all cases: cell-based
[1] = tested on: haematopoietic & lymphoid tumors (13 cell lines); experiment: CellTiter-Glo Viability Assay, haematopoietic & lymphoid tumors; conditions: Homo sapiens, inhibition of cancer cell proliferation
Experimental: (§1) Fifty-one human cancer cell lines (breast cancer (8 cell lines), colorectal cancer (6 cell lines), haematopoietic & lymphoid tumors (13 cell lines), liver cancer (3 cell lines), lung cancer (4 cell lines), ovarian cancer (4 cell lines), pancreatic cancer (8 cell lines), and prostate cancer (5 cell lines)) were tested to determine the effects of representative compounds of Formulas (I)-(XII) on cellular proliferation, as evaluated using the CellTiter-Glo® Viability Assay.
(§2) For the Cell Viability Assays, cells were plated at 300-3,000 cells/well in 384-well plates in their respective media containing 1% Penicillin-Streptomycin and incubated for four days at 37° C. and 5% CO2. Twenty-eight replicates of DMSO-treated cells served as controls and cells treated with compound were performed in duplicate.
(§3) After incubation, 10 μL of CellTiter-Glo® (Promega) was added to each well allowed to incubate for approximately 12 minutes. This reagent results in cell lysis and generation of a luminescent signal proportional to the amount of ATP present. The amount of ATP is directly proportional to the number of metabolically active, viable cells present in culture. The CellTiter-Glo® Assay generates a luminescent signal, produced by the luciferase reaction (Promega.com).
(§4) After incubation, the luminescence signal was read using an EnVision™ Multilabel Plate Reader (Perkin Elmer). Dose-response curves were generated and EC50 concentration values were calculated using Dotmatics' Studies Software (Bishops Stortford, UK).

[2] = tested on: lung cancer (4 cell lines); experiment: CellTiter-Glo Viability Assay, lung cancer; conditions: Homo sapiens, inhibition of cancer cell proliferation
Experimental: as §1, §2, §3, §4

[3] = tested on: prostate cancer (5 cell lines); experiment: CellTiter-Glo Viability Assay, prostate cancer; conditions: Homo sapiens
Experimental: as §1, §2, §3, §4

[4] = tested on: colorectal cancer (6 cell lines); experiment: CellTiter-Glo Viability Assay, colorectal cancer; conditions: Homo sapiens, inhibition of cancer cell proliferation
Experimental: as §1, §2, §3, §4

[5] = tested on: ovarian cancer (4 cell lines); experiment: CellTiter-Glo Viability Assay, ovarian cancer; conditions: Homo sapiens, inhibition of cancer cell proliferation
Experimental: as §1, §2, §3, §4

[6] = tested on: pancreatic cancer (8 cell lines); experiment: CellTiter-Glo Viability Assay, pancreatic cancer; conditions: Homo sapiens, inhibition of cancer cell proliferation
Experimental: as §1, §2, §3, §4

[7] = tested on: liver cancer (3 cell lines); experiment: CellTiter-Glo Viability Assay, liver cancer; conditions: Homo sapiens, inhibition of cancer cell proliferation
Experimental: as §1, §2, §3, §4

all 50 cell lines = experiment: CellTiter-Glo Viability Assay, average across all cell lines; conditions: Homo sapiens; across all 50 cell lines; read-out: average EC50 for inhibition of cancer cell proliferation
Experimental: as §1, §2, §3, §4

T47D = experiment: CellTiter-Glo Viability Assay, breast cancer; conditions: Homo sapiens, 96 h, breast cancer, four days, read-out: EC50
Experimental: as §1, §2, §3, §4

MCF7 = experiment: CellTiter-Glo Viability Assay, breast cancer; conditions: Homo sapiens, 96 h; MCF7, breast cancer, four days; read-out: EC50
Experimental: as §1, §2, §3, §4

DU4475 = experiment: CellTiter-Glo Viability Assay, breast cancer; conditions: Homo sapiens, DU-4475, 96 h; DU4475, breast cancer, four days; read-out: EC50
Experimental: as §1, §2, §3, §4

CAMA1 = experiment: CellTiter-Glo Viability Assay, breast cancer; conditions: Homo sapiens, CAMA-1, 96 h; CAMA1, breast cancer, four days; read-out: EC50
Experimental: as §1, §2, §3, §4

HCC1599 = experiment: CellTiter-Glo Viability Assay, breast cancer; conditions: Homo sapiens, 96 h; HCC1599, breast cancer, four days; read-out: EC50
Experimental: as §1, §2, §3, §4

ZR-75-1 = experiment: CellTiter-Glo Viability Assay, breast cancer; conditions: Homo sapiens, 96 h; ZR-75-1, breast cancer, four days; read-out: EC50
Experimental: as §1, §2, §3, §4

BT-549 = experiment: CellTiter-Glo Viability Assay, breast cancer; conditions: Homo sapiens, 96 h; BT-549, breast cancer, four days; read-out: EC50
Experimental: as §1, §2, §3, §4

MDA-MB-231-Luc = experiment: CellTiter-Glo Viability Assay, breast cancer; conditions: Homo sapiens, 96 h; MDA-MB-231-Luc, breast cancer, four days; read-out: EC50
Experimental: as §1, §2, §3, §4

CN1CCN(c2cc(C(=O)Nc3cc4cc(-c5cnn(C)c5N)ccc4cn3)ccn2)CC1 [Compound 75]
EC50 ([1]; DND41, DND-41 cell line, read-out: Haematopoietic & Lymphoid tumors, EC50 (μM) DND-41): 0.154 µM | EC50 ([1]; MV4-11, MV-4-11 cell line, read-out: Haematopoietic & Lymphoid tumors, EC50 (μM) MV-4-11): 0.042 µM | EC50 ([1]; Rec1, REC-1 cell line, read-out: Haematopoietic & Lymphoid tumors, EC50 (μM) REC-1): 0.045 µM | EC50 ([1]; SU-DHL-4, SUDHL4 cell line, read-out: Haematopoietic & Lymphoid tumors, EC50 (μM) SUDHL4): 0.155 µM | EC50 ([1]; HL-60 cell line, read-out: Haematopoietic & Lymphoid tumors, EC50 (μM) HL-60): 0.449 µM | EC50 ([1]; JM1 cell line, read-out: Haematopoietic & Lymphoid tumors, EC50 (μM) JM1): 0.044 µM | EC50 ([1]; JURKAT, Clone E6-1 cell line, read-out: Haematopoietic & Lymphoid tumors, EC50 (μM) JURKAT, Clone E6-1): 0.333 µM | EC50 ([1]; JeKo-1 cell line, read-out: Haematopoietic & Lymphoid tumors, EC50 (μM) JeKo-1): 0.046 µM | EC50 ([1]; KASUMI-1 cell line, read-out: Haematopoietic & Lymphoid tumors, EC50 (μM) KASUMI-1): 0.119 µM | EC50 ([1]; Loucy cell line, read-out: Haematopoietic & Lymphoid tumors, EC50 (μM) Loucy): 0.142 µM | EC50 ([1]; MOLT-4 cell line, read-out: Haematopoietic & Lymphoid tumors, EC50 (μM) MOLT-4): 0.162 µM | EC50 ([1]; TF-1 cell line, read-out: Haematopoietic & Lymphoid tumors, EC50 (μM) TF-1): 0.225 µM | EC50 ([1]; TOLEDO cell line, read-out: Haematopoietic & Lymphoid tumors, EC50 (μM) TOLEDO): 0.046 µM | EC50 ([2]; A-427, A427 cell line, read-out: Lung cancer, EC50 (μM) A427): 0.114 µM | EC50 ([2]; HCC78, HCC-78 cell line, read-out: Lung cancer, EC50 (μM) HCC-78): 0.19 µM | EC50 ([2]; NCI-H460 cell line, read-out: Lung cancer, EC50 (μM) NCI-H460): 0.196 µM | EC50 ([2]; NCI-H522 cell line, read-out: Lung cancer, EC50 (μM) NCI-H522): 0.079 µM | EC50 ([3]; DU-145, read-out: Prostate cancer EC50 Du-145): 208 nM | EC50 ([3]; PC-3, PC3 cell line, inhibition of cancer cell proliferation, read-out: Prostate cancer EC50 PC3): 159 nM | EC50 ([3]; 22Rv1 cell line, inhibition of cancer cell proliferation, read-out: Prostate cancer EC50 22Rv1): 113 nM | EC50 ([3]; LNCap clone FGC cell line, inhibition of cancer cell proliferation, read-out: Prostate cancer EC50 LNCap clone FGC): 305 nM | EC50 ([3]; VCaP (Sigma) cell line, inhibition of cancer cell proliferation, read-out: Prostate cancer EC50 VCaP (Sigma)): 333 nM | EC50 ([4]; HCT-116, HCT116 cell line, read-out: Colorectal cancer, EC50 (μM) HCT116): 0.102 µM | EC50 ([4]; HT-29, HT29 cell line, read-out: Colorectal cancer, EC50 (μM) HT29): 0.187 µM | EC50 ([4]; SW-620, SW620 cell line, read-out: Colorectal cancer, EC50 (μM) SW620): 0.067 µM | EC50 ([4]; DLD-1 cell line, read-out: Colorectal cancer, EC50 (μM) DLD-1): 0.141 µM | EC50 ([4]; SW48 cell line, read-out: Colorectal cancer, EC50 (μM) SW48): 0.051 µM | EC50 ([4]; SW480 cell line, read-out: Colorectal cancer, EC50 (μM) SW480): 0.143 µM | EC50 ([5]; PA-1, PA1 cell line, read-out: Ovarian cancer, EC50 (μM) PA1): 0.12 µM | EC50 ([5]; TOV112D, TOV-112D cell line, read-out: Ovarian cancer, EC50 (μM) TOV-112D): 0.108 µM | EC50 ([5]; OV-90 cell line, read-out: Ovarian cancer, EC50 (μM) OV-90): 0.256 µM | EC50 ([5]; OVCAR-3 cell line, read-out: Ovarian cancer, EC50 (μM) OVCAR-3): 0.067 µM | EC50 ([6]; BXPC-3, BxPC3 cell line, read-out: Pancreatic cancer, EC50 BxPC3): 284 nM | EC50 ([6]; CAPAN-1, Capan1 cell line, read-out: Pancreatic cancer, EC50 Capan1): 152 nM | EC50 ([6]; Capan-2, Capan2 cell line, read-out: Pancreatic cancer, EC50 Capan2): 289 nM | EC50 ([6]; MIA PaCa-2 cell line, read-out: Pancreatic cancer, EC50 MIA PaCa-2): 84 nM | EC50 ([6]; PANC 05.04 cell line, read-out: Pancreatic cancer, EC50 PANC 05.04): 138 nM | EC50 ([6]; PANC-1 cell line, read-out: Pancreatic cancer, EC50 PANC-1): 251 nM | EC50 ([6]; UPAFII cell line, read-out: Pancreatic cancer, EC50 UPAFII): 83 nM | EC50 ([7]; SNU-398, SNU398 cell line, read-out: Liver cancer, EC50 SNU398): 34 nM | EC50 ([7]; HEPG2 cell line, read-out: Liver cancer, EC50 HEPG2): 130 nM | EC50 ([7]; PLC/PRF/5 cell line, read-out: Liver cancer, EC50 PLC/PRF/5): 301 nM | EC50 (all 50 cell lines): 167 nM | EC50 (T47D): 246 nM | EC50 (MCF7): 483 nM | EC50 (DU4475): 123 nM | EC50 (CAMA1): 216 nM | EC50 (HCC1599): 91 nM | EC50 (ZR-75-1): 177 nM | EC50 (BT-549): 169 nM | EC50 (MDA-MB-231-Luc): 188 nM
